Measured values published in BindingDB's records for doi:10.1021/acs.jmedchem.3c00363 (University of Regensburg, 2023).
Starred links: 1 amine or outer side, 2 acyl side, 3 side chain; linkers in the order of their positions; H or OH if unused. Non-standard residues stand in square brackets, D forms with d. Residues, ends and D or L forms follow the SMILES beside them. X1 = O=C([C@@H]1C[C@@H](c2ccccc2)[C@@H]1CN[*:1])[*:2]; X2 = O=C([C@H]1C[C@H](c2ccccc2)[C@H]1CN[*:1])[*:2]

Biological target: Neuropeptide Y receptor type 1 (Homo sapiens) (UniProt P25929)
Experiment: Displacement of [3H]UR-MK299 from human Y1 receptor expressed in human SK-N-MC cells measured after 90 mins by MicroBeta plate counter based competition binding assay

Chain of Neuropeptide Y receptor type 1 (Homo sapiens) (P25929 whole entry, looked up): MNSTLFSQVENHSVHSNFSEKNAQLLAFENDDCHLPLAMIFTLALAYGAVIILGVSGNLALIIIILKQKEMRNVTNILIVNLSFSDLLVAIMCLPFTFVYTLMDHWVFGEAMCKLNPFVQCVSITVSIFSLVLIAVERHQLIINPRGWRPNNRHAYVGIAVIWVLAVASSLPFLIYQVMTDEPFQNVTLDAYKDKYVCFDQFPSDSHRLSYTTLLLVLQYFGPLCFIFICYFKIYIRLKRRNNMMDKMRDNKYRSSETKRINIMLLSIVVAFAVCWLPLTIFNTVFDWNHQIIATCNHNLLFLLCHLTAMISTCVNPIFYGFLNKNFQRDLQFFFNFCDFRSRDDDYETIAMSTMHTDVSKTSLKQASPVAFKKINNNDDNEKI

| Ki [nM] | SMILES |
| --- | --- |
| > 1050 | CC(=O)N[C@@H](CCCNC(=N)N)C(=O)NC[C@H]1[C@@H](C(=O)N[C@@H](CCCNC(=N)N)C(=O)NC[C@H]2[C@@H](C(=O)N[C@@H](CCCNC(=N)N)C(=O)N[C@@H](Cc3ccc(O)cc3)C(N)=O)C[C@@H]2c2ccccc2)C[C@@H]1c1ccccc1 (Ac-R[X2]R[X2]RY-NH2) |
| 1180 | CC(=O)N[C@@H](CCCNC(=N)N)C(=O)N[C@@H](Cc1ccc(O)cc1)C(=O)N[C@@H](CCCNC(=N)N)C(=O)N[C@@H](CC(C)C)C(=O)N[C@@H](CCCNC(=N)N)C(=O)N[C@@H](Cc1ccc(O)cc1)C(N)=O |
| > 1000 | CC(=O)N[C@@H](CCCNC(=N)N)C(=O)NC[C@@H]1[C@H](C(=O)N[C@@H](CCCNC(=N)N)C(=O)NC[C@@H]2[C@H](C(=O)N[C@@H](CCCNC(=N)N)C(=O)N[C@@H](Cc3ccc(O)cc3)C(N)=O)C[C@H]2c2ccccc2)C[C@H]1c1ccccc1 (Ac-R[X1]R[X1]RY-NH2) |
| 230 | CC(=O)N[C@@H](CCCNC(=N)N)C(=O)NC[C@@H]1[C@H](C(=O)N[C@@H](CCCNC(=N)N)C(=O)N[C@@H](CC(C)C)C(=O)N[C@@H](CCCNC(=N)N)C(=O)N[C@@H](Cc2ccc(O)cc2)C(N)=O)C[C@H]1c1ccccc1 (Ac-R[X1]RLRY-NH2) |
| > 3000 | CC(=O)N[C@@H](CCCNC(=N)N)C(=O)NC[C@H]1[C@@H](C(=O)N[C@@H](CCCNC(=N)N)C(=O)N[C@@H](CC(C)C)C(=O)N[C@@H](CCCNC(=N)N)C(=O)N[C@@H](Cc2ccc(O)cc2)C(N)=O)C[C@@H]1c1ccccc1 (Ac-R[X2]RLRY-NH2) |
